Assay results taken from patent US12241084B2, “Methods for efficient generation of GABAergic interneurons from pluripotent stem cells” (The McLean Hospital Corporation, priority 2013, dated 2025).
“Also recorded” adds a separate entry of the source.

How the values were obtained:
[1] = tested on: AMPA/kainate-type glutamate receptors; experiment: NBQX inhibition of sEPSC in grafted cells; design: species or system human; details: 10 μM NBQX
H9 cells [2] = experiment: MGE derivation from differentiating hPSCs (Nkx2.1 immunocytochemistry, cell counting, FACS); type: cell-based, human; details: for Nkx2.2+/total cells: n=4; for MGE specification: treatment starting at day 0, flow cytometry
Procedure: Human PSC cells (H9 ESCs (WA09, WiCell, Madison, WI, passage 45-55), H7 ESC (WA07, WiCell, passage 41-51) and iPSC2497 (a kind gift from Dr. Fred Gage, [14], passage 30-40) were maintained on Matrigel (BD, San Hose, CA) in mTeSR media (Invitrogen, Calsbad, CA) with 10 ng/ml bFGF (Peprotech, Rocky Hill, NJ), and passaged using Dispase (Stem Cell Technologies, Vancouver, BC, Canada). For differentiation, PSCs were trypsinized and grown as floating aggregates in low adherent flasks in KSR media (20% knockout serum replacement, DMEM, 2 mM L-glutamine and 10 μM β-mercaptoethanol (all from Invitrogen)). Rock inhibitor (Y-27632, 10 μM, Tocris, Bristol, United Kingdom) was added on the first day of differentiation. After two weeks of floating culture, cells were transferred to polyornithine (PLO; […]; Sigma, St. Louis, MO) and fibronectin (FN; […]; Sigma, St. Louis, MO) coated surfaces. For neural induction, cells were treated with LDN193189 (100 nM, Stemgent, Cambridge, MA) from d0 to d14 and with SB431542 (10 μM, Tocris) from d0 to d7 [25]. For MGE induction, cells were treated with IWP2 (5 μM, EMD Millipore) from d0 to d7, with SAG (0.1 µM, EMD Millipore) from d0 to d21, and with FGF8 (100 ng/ml, Peprotech) from d8 to d21. After 3 weeks of differentiation, cells were trypsinized and droplets of 10,000 cells/μl transferred to PLO/FN-coated coverslips in differentiation media (N3 media with 10 ng/ml GDNF (Peprotech), 10 ng/ml BDNF (Peprotech) and 2.5 μM DAPT (Tocris)) for further differentiation and maturation.
Differentiated cells were trypsinized and fixed in Fix/Perm solution (BD) for 30 min., and incubated with blocking buffer (PBS with 0.1 mg/ml BSA and 0.1% Saponin (both from Sigma, St. Louis, MO)) for 10 minutes. Blocked cells were incubated with primary antibody (anti-Nkx2.1; Epitomics) in blocking buffer for 30 minutes. After washing with PBS, Alexa 647-conjugated secondary antibodies (Invitrogen) were added (1:1000) and incubated for another 15 minutes. Some samples were incubated only with secondary antibody as control. After washing with PBS, cells were suspended in blocking buffer and analyzed using a FACSAria (BD Biosciences, San Jose, CA). Flowjo (Tree Star, Ashland, Or) software was used to analyze raw data. Ten thousand cells were used per analysis.
For immunofluorescence staining, fixed cells or tissue sections were incubated with blocking buffer (PBS, 10% normal donkey serum (NDS)) containing 0.1% Triton for 10 minutes. Cells were then incubated overnight at 4° C. with primary antibodies diluted in PBS containing 2% NDS. The primary antibody list can be found in table 1. After rinsing with PBS, samples were incubated with fluorescent dye-labeled secondary antibodies (Alexa 488- Alexa 594- or Alexa 647-labeled IgG; Invitrogen, Carlsbad, CA) in PBS containing 2% NDS for 30 minutes at room temperature. After rinsing with PBS, Hoechst 33342 ([…]) was used for counterstaining, and coverslips/tissues sections were mounted onto slides in Mowiol 4-88 (Calbiochem, Gibbstown, NJ). Confocal analysis was performed using an Olympus DSU Spinning Disc Confocal on an IX81 inverted microscope (Center Valley, PA).
Cells were counted using the StereoInvestigator image capture equipment and software (Microbright Field, Williston, VT). For counting of cells on cover slips, an optical fractionator probe was used with a 500 μm×500 µm grid size and 100 μm×[…] counting frame (>40 counting sites with >1000 total cells counted per sample) at 40× magnification. Coverslips from 3-4 independent differentiations were used for analysis. For statistical analysis, we performed t-test (alpha=0.05) comparing control vs. sample using Prism6 software (Graph Pad).

differentiating ES cells = experiment: Real time PCR analysis of differentiating ES cells; type: cell-based, human
Procedure: Total RNA was prepared using Trizol (Invitrogen) and Purelink RNA mini kit (Invitrogen). cDNA from total RNA was generated using the SuperScript™ II RT (Invitrogen, Carlsbad, CA) and oligo (dT) primers. For quantitative analysis of the expression level of mRNAs, real-time PCR analyses were performed using the DNA engine Opticon™ (MJ Research, Waltham, MA) and SYBR green I (Molecular Probes, OR). Primers were designed using the MacVector software (Oxford Molecular Ltd.: primers sequences are available upon request). PCR were performed in 25 μl containing […] of each primer, 0.5×SYBR Green I (Molecular Probes), and 1 μl of cDNA. Fifty cycles consisting of 95° C. for 30 sec., 55° C. for 30 sec., 72° C. for 30 sec., and 79° C. for 5 sec. were performed. Primer dimers were melted at 79° C. before measuring the fluorescent signals after each cycle. The mRNA expression level for each gene was normalized against that of the GAPDH gene. The relative values were calculated by setting the normalized value of control as 1.

H9 cells [3] = experiment: MGE derivation from differentiating hPSCs (Nkx2.1 immunocytochemistry, cell counting, FACS); type: cell-based, human
[4] = tested on: voltage-gated Na+ channels; type: cell-based, human
[5] = SHH activation during early differentiation

## NS(=O)(=O)c1cccc2c1c([N+](=O)[O-])cc1nc(O)c(O)nc12 [NBQX]
[1]
  inhibition of spontaneous excitatory postsynaptic currents: inhibited sEPSC completely

## FGF19: exogenously applied FGF19, caudalizing signal
H9 cells [2]
  Nkx2.2+/total cells: 4.19+0.77%
Differentiating ES cells; exogenous application of FGF19
  FGF8 expression: no effect on FGF8 expression; also recorded: does not affect FGF8 expression
H9 cells [3]; FGF19 applied exogenously instead of FGF8, 3 weeks of differentiation
  CGE identity: most of the cells taking up CGE identity; also recorded: induces CGE phenotype

## CNC1CCC(N(Cc2cccc(-c3ccncc3)c2)C(=O)c2sc3ccccc3c2Cl)CC1 (stereo not drawn) [SAG]
H9 cells [2]; 10 nM vs 100 nM SAG
  expression of isl1: no significant difference
H9 cells [2]; 100 nM SAG, H9 cells, 25 days of differentiation
  induction of the MGE phenotype: significantly higher induction of the MGE phenotype
H9 cells [2]
  MGE specification: 0.79%
Differentiating ES cells; [5]
  Gli1 expression: strong induction of Gli1
  Gli3 expression: strong Gli3 expression reduction
Differentiating ES cells; early SHH activation
  FGF15/19 expression: induced the expression of FGF15/19
H9 cells [3]; 10 nM SAG, H9 cells, 25 days of differentiation
  MGE specification: modest increase in MGE specification
H9 cells [3]; SAG treatment in the 3rd week of differentiation
  Nkx2.1 level / MGE derivation: increased Nkx2.1 level mildly but significantly; also recorded: further enhanced MGE derivation

## NC1=N[C@H](O)[C@H]2[C@H]3O[C@]4(O)O[C@@H]([C@@H](O)[C@@]2(N1)[C@@H]4O)[C@]3(O)CO [tetrodotoxin]
[4]
  block of transient (rapidly desensitizing) inward currents: completely blocked; also recorded: selectively blocked transient component

## Cc1ccc2nc(NC(=O)CSc3nc4c(c(=O)n3-c3ccccc3)SCC4)sc2c1 [IWP2]
H9 cells [2]
  MGE specification: 5.16%

B1: FGF8: fibroblast growth factor 8 protein (SEQ ID NO: 1), activator of FGF8 signaling (protein, listed as Homo sapiens)
chain: MAEDGDPFAKLIVETDTFGSRVRVRGAETGLYICMNKKGKLIAKSNGKGKDCVFTEIVLENNYTALQNAKYEGWYMAFTRKGRPRKGSKTRQHQREVHFMKRLPRGHHTTEQSLRFEFLNYPPFTRSLRGSQRTWAPEPR
H9 cells [2]; early SHH activation with exogenous FGF8, multiple hPSCs
  MGE cells by FACS: > 80%
H9 cells [2]
  Nkx2.2+/total cells: 0.61+0.38%
H9 cells [2]; treatment in the 2nd and/or 3rd week of differentiation
  MGE differentiation vs CGE differentiation: significantly increased MGE differentiation at the expense of CGE differentiation; also recorded: further induced MGE phenotype at the expense of the CGE phenotype; also recorded: induces MGE phenotype
Differentiating ES cells; exogenous application of FGF8
  FGF19 expression: increase FGF19 expression mildly but significantly; also recorded: increases FGF19 expression
